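Cells were grown in 96-well plates and exposed to each compound for 48 hours at five concentrations; endpoints were interpolated linearly between bracketing concentrations, or set to the highest concentration if not reached. GI50 marks 50% less growth.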 Calls of active or inactive are those of the source. No stated cut-off is given here; in the data, active = GI50 up to about 1.1 µM and inactive = higher.
Columns and labels:
Experiment in all cases: inhibition of tumour cell growth, NCI panel, 48 h
[1] = tested on: LOX IMVI
[2] = tested on: HL-60
[3] = tested on: SF-295
[4] = tested on: HCT-15
[5] = tested on: UACC-257
[6] = tested on: HCT-116
[7] = tested on: IGROV-1
[8] = tested on: NCI-H23
[9] = tested on: HOP-62
[10] = tested on: LXFL 529
[11] = tested on: SK-OV-3
[12] = tested on: M19-MEL
[13] = tested on: COLO 205
[14] = tested on: CCRF-CEM
[15] = tested on: SK-MEL-2
[16] = tested on: UO-31
[17] = tested on: SF-268
[18] = tested on: SR
[19] = tested on: A549
[20] = tested on: TK-10
[21] = tested on: DMS-114
[22] = tested on: KM12
[23] = tested on: HOP-92
[24] = tested on: U-251
[25] = tested on: 786-0
[26] = tested on: HOP-18
[27] = tested on: SK-MEL-28
[28] = tested on: NCI-H460
[29] = tested on: DLD-1
[30] = tested on: SN12C
[31] = tested on: MOLT-4
[32] = tested on: Malme-3M
[33] = tested on: EKVX
[34] = tested on: XF498
[35] = tested on: M14
[36] = tested on: SNB-75
[37] = tested on: KM-20L2
[38] = tested on: OVCAR-5
[39] = tested on: SW-620
[40] = tested on: SF-539
[41] = tested on: OVCAR-3
[42] = tested on: OVCAR-8
[43] = tested on: K562
[44] = tested on: SK-MEL-5
[45] = tested on: UACC-62
[46] = tested on: ACHN
[47] = tested on: SNB-78
[48] = tested on: DMS-273
[49] = tested on: CAKI-1
[50] = tested on: OVCAR-4
[51] = tested on: NCI-H226
[52] = tested on: A498
[53] = tested on: HT-29
[54] = tested on: HCC 2998
[55] = tested on: RXF 393
[56] = tested on: RPMI-8226

For O=S(=O)(N/N=C/c1cccc(Cl)c1Cl)c1ccccc1, the GI50 [1] was 68.7 µM (inactive), the GI50 [2] was 39.9 µM (inactive) and the GI50 [3] was 79.6 µM (inactive). The GI50 [4] was 98.2 µM, the GI50 [5] was 48 µM (inactive) and the GI50 [6] was 47 µM (inactive). For the same molecule, the GI50 [7] was 77.4 µM (inactive), the GI50 [8] was 45.6 µM (inactive) and the GI50 [9] was > 100 µM (inactive). For the same molecule, the GI50 [10] was 70.6 µM (inactive), the GI50 [11] was > 100 µM (inactive) and the GI50 [12] was 93.8 µM (inactive). The GI50 [13] was 89.7 µM (inactive), the GI50 [14] was 66.2 µM (inactive) and the GI50 [15] was 58.6 µM (inactive). For the same molecule, the GI50 [16] was 94.4 µM (inactive), the GI50 [17] was 35.5 µM (inactive) and the GI50 [18] was 38.8 µM (inactive). The GI50 [19] was > 100 µM (inactive), the GI50 [20] was > 100 µM (inactive) and the GI50 [21] was 27.7 µM (inactive). For the same molecule, the GI50 [22] was > 100 µM (inactive), the GI50 [23] was 14.2 µM (inactive) and the GI50 [24] was 90.4 µM (inactive). The GI50 [25] was > 100 µM (inactive), the GI50 [26] was 87.3 µM (inactive) and the GI50 [27] was > 100 µM (inactive). For the same molecule, the GI50 [28] was > 100 µM (inactive), the GI50 [29] was 45.4 µM (inactive) and the GI50 [30] was 46 µM (inactive). For the same molecule, the GI50 [31] was 26.9 µM (inactive), the GI50 [32] was > 100 µM (inactive) and the GI50 [33] was > 100 µM (inactive). The GI50 [34] was 54.7 µM (inactive), the GI50 [35] was > 100 µM (inactive) and the GI50 [36] was 99.1 µM (inactive). For the same molecule, the GI50 [37] was > 100 µM (inactive), the GI50 [38] was > 100 µM (inactive) and the GI50 [39] was > 100 µM (inactive). The GI50 [40] was 80 µM (inactive), the GI50 [41] was > 100 µM (inactive) and the GI50 [42] was 78.2 µM (inactive). For the same molecule, the GI50 [43] was 62.2 µM (inactive), the GI50 [44] was 43.6 µM (inactive) and the GI50 [45] was > 100 µM (inactive). For the same molecule, the GI50 [46] was 55 µM (inactive), the GI50 [47] was > 100 µM (inactive) and the GI50 [48] was 71.4 µM (inactive). The GI50 [49] was 69.3 µM (inactive), the GI50 [50] was > 100 µM (inactive) and the GI50 [51] was > 100 µM (inactive). For the same molecule, the GI50 [52] was 40.8 µM (inactive), the GI50 [53] was 99.8 µM (inactive) and the GI50 [54] was > 100 µM (inactive). The GI50 [55] was 22.6 µM (inactive) and the GI50 [56] was 66.2 µM (inactive).

Source: ChEMBL document CHEMBL1201862, “PubChem BioAssay data set” (2004)
